How the values were obtained:
Staphylococcus aureus = assay: Antimicrobial testing by agar dilution, Staphylococcus aureus; format: cell-based; conditions: after 10, 20, 40 and 60 min at all dilutions 1:100, 1:200, 1:400, 1:800
Experimental: (§1) The antimicrobial properties of the 9-(4-Nitrobenzylidene)-4-(4-nitrophenyl)-3-cyano-2-methoxy-6,7,8,9-tetrahydro-5H-cyclohepta[b]pyridine was studied by the method of agar dilution. Test solutions of each compound was prepared in concentration of 1% using dimethylformamide as a solvent then they are diluted in physiological solution to obtain the final experimental dilutions 1:100, 1:200, 1:400, 1:800. The effect of these substances are compared with furacillin in a controllable study. The testing microbes used were gram positive bacteria Staphylococcus aureus, gram negative bacteria Pseudomonas aeruginosa, Escherichia coli and Candida albicans fungi were taken.
(§2) The experiments used for this survey were meat-pentonlu agar (EPA) for cultivation of bacteria and Saburo environment for fungi. Each experiment used 1 mL of test solution on each plate 500 min. Add 2 drops of emulsified with microbes feel. All experimental samples were taken from the agar after 10, 20, 40, 60 minutes in the environment on the basis of Patrk planted. Bacteria were cultivated at a temperature of 37° C. for 1 day and the mushroom was kept in a thermostat for […] at a temperature of 28° C. Then the results were checked.

Pseudomonas aeruginosa = assay: Antimicrobial testing by agar dilution, Pseudomonas aeruginosa; format: cell-based; conditions: after 10, 20, 40 and 60 min at all dilutions 1:100, 1:200, 1:400, 1:800
Experimental: as §1, §2

Escherichia coli = assay: Antimicrobial testing by agar dilution, Escherichia coli; format: cell-based; conditions: after 10, 20, 40 and 60 min at all dilutions 1:100, 1:200, 1:400, 1:800
Experimental: as §1, §2

Candida albicans = assay: Antimicrobial testing by agar dilution, Candida albicans; format: cell-based; conditions: after 10, 20, 40 and 60 min at all dilutions 1:100, 1:200, 1:400, 1:800
Experimental: as §1, §2

COc1nc2c(c(-c3ccc([N+](=O)[O-])cc3)c1C#N)CCCC/C2=C\c1ccc([N+](=O)[O-])cc1 [9-(4-nitrobenzylidene)-4-(4-nitrophenyl)-3-cyano-2-methoxy-6,7,8,9-tetrahydro-5H-cyclohepta[b]pyridine]
inhibition activity (Staphylococcus aureus): most higher inhibition activity | melting point: 133 to 135 °C | inhibition activity (Pseudomonas aeruginosa): most higher inhibition activity | inhibition activity (Escherichia coli): most higher inhibition activity | inhibition activity (Candida albicans): most higher inhibition activity

From US11932605B1, “9-(4-nitrobenzylidene)-4-(4-nitrophenyl)-3-cyano-2-methoxy-6,7,8,9-tetrahydro-5h-cyclohepta[b]pyridine as an antimicrobial compound” (KING FAISAL UNIVERSITY, priority 2023, dated 2024)
